Tests used:
Rattus norvegicus [1] = assay: Percent inhibition of sorbitol accumulation in the sciatic nerve of streptozotocin (STZ)- induced diabetic rats at peroral dose of 30 mg/kg (preventive effect); type: functional; settings: route oral
Rattus norvegicus [2] = assay: Percent inhibition of sorbitol accumulation in the lens of streptozotocin (STZ)-induced diabetic rats at peroral dose of 30 mg/kg (preventive effect); type: functional; settings: Lens of camera-type eye, route oral
Rattus norvegicus [3] = assay: Inhibition of sorbitol accumulation in the lens in diabetic rats at peroral dose of 30 mg/kg (curative effect); type: functional; settings: Lens of camera-type eye, route oral
Rattus norvegicus [4] = assay: Inhibition of sorbitol accumulation in the sciatic nerve in diabetic rats at peroral dose of 30 mg/kg (curative effect); type: functional; settings: route oral
[5] = biological target: Aldo-keto reductase family 1 member B1 (Sus scrofa, UniProt P80276); assay: Inhibitory concentration against porcine lens aldose reductase (AR) with DL-glyceraldehyde as the substrate
[6] = biological target: Aldo-keto reductase family 1 member B1 (Sus scrofa) (UniProt P80276); assay: In vitro percent inhibition of porcine lens aldose reductase (AR) at 10e -7 M with DL-glyceraldehyde as the substrate
Rattus norvegicus [7] = assay: Percent inhibition of sorbitol accumulation in the sciatic nerve of streptozotocin (STZ)- induced diabetic rats at peroral dose of 30 mg/kg (curative effect); type: functional; settings: route oral
Rattus norvegicus [8] = assay: Percent inhibition of sorbitol accumulation in the lens of streptozotocin (STZ)-induced diabetic rats at peroral dose of 30 mg/kg (curative effect); type: functional; settings: Lens of camera-type eye, route oral

| Compound | inhibition in vivo at 30 mg/kg (Rattus norvegicus [1]) | inhibition in vivo at 30 mg/kg (Rattus norvegicus [2]) | ED50 (Rattus norvegicus [3]) | ED50 (Rattus norvegicus [4]) | IC50 [5] | further results |
| --- | --- | --- | --- | --- | --- | --- |
| CN(CC(=O)O)C(=S)CCc1nc2c(F)c(F)cc(F)c2s1 | 48% | 58% |  |  |  |  |
| O=C(O)Cc1cc(I)cc(Cc2nc3c(F)c(F)cc(F)c3s2)c1 |  |  | > 10 mg/kg | > 10 mg/kg | 11 nM |  |
| O=C(O)CC1Sc2ccccc2N(Cc2nc3c(F)c(F)cc(F)c3s2)C1=O (stereo not drawn) |  |  | > 10 mg/kg | 1.8 mg/kg |  |  |
| O=C(O)CN(Cc1ccccc1)C(=O)CCc1nc2c(F)c(F)cc(F)c2s1 | 75% | 54% |  |  |  |  |
| O=C(O)Cc1cc(Cc2nc3c(F)c(F)cc(F)c3s2)cc(C(=O)O)c1 |  |  | > 10 mg/kg | > 10 mg/kg |  |  |
| O=C(O)CCCCCc1nc2c(F)c(F)cc(F)c2s1 |  |  |  |  | 50 nM | inhibition [6]: 71% |
| O=C(O)Cc1cc(Cl)cc(Cc2nc3c(F)c(F)cc(F)c3s2)c1 |  |  | 7.8 mg/kg | 0.46 mg/kg | 7 nM |  |
| COc1ccc2c(C(=S)N(C)CC(=O)O)cccc2c1C(F)(F)F [TOLRESTAT] | 84% | 36% |  |  | 16 nM |  |
| O=C(O)CCCCCCc1nc2c(F)c(F)cc(F)c2s1 |  |  |  |  |  | inhibition [6]: 11% |
| O=C(O)CCCc1nc2c(F)c(F)cc(F)c2s1 |  |  |  |  |  | inhibition [6]: 1% |
| O=C(O)CN(Cc1ccccc1)C(=S)CCc1nc2c(F)c(F)cc(F)c2s1 | 65% | 23% |  |  |  |  |
| O=C(O)CN(C(=S)CCc1nc2c(F)c(F)cc(F)c2s1)c1ccccc1 | < 64% | 12% |  |  |  |  |
| Cc1cc(CC(=O)O)cc(Cc2nc3c(F)c(F)cc(F)c3s2)c1 |  |  | 1.6 mg/kg | 0.25 mg/kg |  |  |
| O=C(O)CN(CCc1ccccc1)C(=O)CCc1nc2c(F)c(F)cc(F)c2s1 | 65% | -2% |  |  |  |  |
| CN(CC(=O)O)C(=O)CCc1nc2c(F)c(F)cc(F)c2s1 | 61% | 30% |  |  |  |  |
| O=C(O)CN(C(=O)CCc1nc2c(F)c(F)cc(F)c2s1)c1ccccc1 | 54% | 80% |  |  |  |  |
| O=C(O)Cc1cccc(Cc2nc3c(F)c(F)cc(F)c3s2)c1Cl |  |  | 0.71 mg/kg | 0.12 mg/kg | 9.3 nM |  |
| O=C(O)Cc1cc(Br)cc(Cc2nc3c(F)c(F)cc(F)c3s2)c1 |  |  | 9.8 mg/kg | 0.68 mg/kg |  |  |
| O=C(O)Cc1cc(F)cc(Cc2nc3c(F)c(F)cc(F)c3s2)c1 |  |  | 10 mg/kg | 0.32 mg/kg | 8.8 nM |  |
| O=C(O)Cc1ccc(Cc2nc3c(F)c(F)cc(F)c3s2)cc1 |  |  |  |  | 38 nM |  |
| O=C(O)Cn1c(=O)n(Cc2ccc(Br)cc2F)c(=O)c2ccc(Cl)cc21 [ZENARESTAT] | 89% | 30% |  |  | 12 nM | inhibition in vivo at 30 mg/kg (Rattus norvegicus [7]): 76%; inhibition in vivo at 30 mg/kg (Rattus norvegicus [8]): 21% |
| CN(C)c1cc(CC(=O)O)cc(Cc2nc3c(F)c(F)cc(F)c3s2)c1.Cl |  |  | > 10 mg/kg | 0.53 mg/kg | 12 nM |  |
| O=C(O)Cc1cccc(Cc2nc3c(F)c(F)cc(F)c3s2)c1 |  |  | > 10 mg/kg | 1.5 mg/kg |  |  |
| O=C(O)CCCCc1nc2c(F)c(F)cc(F)c2s1 |  |  |  |  |  | inhibition [6]: 35% |

— ChEMBL document CHEMBL1130466, “Benzothiazol-2-ylcarboxylic acids with diverse spacers: A novel class of potent, orally active aldose reductase inhibitors” (Bioorg Med Chem Lett, 1997)
